Data reported in patent US8167991B2, “Trisazo compound, ink composition, recording method, and colored article” (Nippon Kayaku Kabushiki Kaisha, priority 2006, dated 2012).

assay: Solubility of the dye compound; type: physicochemical; settings: compound obtained as a sodium salt; read-out: solubility

**Q.** With `CS(=O)(=O)O.Cc1cc(N=Nc2c(C)c(C#N)c3nc4ccccc4n3c2O)c(OCCCCS(=O)(=O)O)cc1N=Nc1ccc(N=Nc2ccc(S(=O)(=O)O)cc2)cc1S(=O)(=O)O` [Compound No. 20] as the molecule, how does the solubility read?
**A.** The solubility was ≥ 100 mg/mL.

**Q.** Which solubility does the source give for `Cc1cc(N=Nc2c(S(=O)(=O)O)cc3c(S(=O)(=O)O)c(N=Nc4cc(S(=O)(=O)O)c5cc(S(=O)(=O)O)c(N=Nc6ccc([N+](=O)[O-])cc6S(=O)(=O)O)c(O)c5c4N)ccc3c2O)c(OCCCS(=O)(=O)O)cc1N=Nc1cc(C)c(N=Nc2ccc(S(=O)(=O)O)c3cc(S(=O)(=O)O)cc(O)c23)cc1OCCCS(=O)(=O)O` [formula (75)] here?
**A.** The solubility was ≥ 100 mg/mL.

**Q.** For `CS(=O)(=O)O.Cc1cc(N=Nc2c(C)c(C(N)=O)c3nc4ccccc4n3c2O)c(OCCCS(=O)(=O)O)cc1N=Nc1cc(C)c(N=Nc2ccc(S(=O)(=O)O)cc2C(=O)O)cc1OCCCS(=O)(=O)O` [Compound No. 7], which solubility is on record?
**A.** Its solubility is ≥ 100 mg/mL.

**Q.** For `CS(=O)(=O)O.Cc1cc(N=Nc2c(-c3ccccc3)c(C#N)c3nc4ccccc4n3c2O)c(OCCCS(=O)(=O)O)cc1N=Nc1ccc(N=Nc2ccc(S(=O)(=O)O)cc2)cc1S(=O)(=O)O` [Compound No. 4], which solubility is on record?
**A.** The solubility was ≥ 100 mg/mL.

**Q.** Which solubility does the source give for `CS(=O)(=O)O.Cc1cc(N=Nc2c(C)c(C#N)c3nc4ccccc4n3c2O)c(OCCCS(=O)(=O)O)cc1N=Nc1cc(C)c(N=Nc2ccc(S(=O)(=O)O)cc2C(=O)O)cc1OCCCS(=O)(=O)O` [Compound No. 6] here?
**A.** Its solubility is ≥ 100 mg/mL.

**Q.** For `CCCc1c(N=Nc2cc(C)c(N=Nc3ccc(N=Nc4ccc(S(=O)(=O)O)cc4)cc3S(=O)(=O)O)cc2OCCCS(=O)(=O)O)c(O)n2c(nc3ccccc32)c1C#N.CS(=O)(=O)O` [Compound No. 3], which solubility is on record?
**A.** Its solubility is ≥ 100 mg/mL.

same assay, conditions: water; read-out: solubility in water

**Q.** Which solubility does the source give for `Nc1c(N=Nc2ccc3c(O)c(N=Nc4ccc5c(O)c(N=Nc6ccc(N=Nc7ccc(S(=O)(=O)O)cc7)cc6S(=O)(=O)O)c(S(=O)(=O)O)cc5c4S(=O)(=O)O)c(S(=O)(=O)O)cc3c2S(=O)(=O)O)cc(S(=O)(=O)O)c2cc(S(=O)(=O)O)c(N=Nc3ccc(S(=O)(=O)O)cc3[N+](=O)[O-])c(O)c12` [formula (II-57)] here?
**A.** The solubility was ≥ 100 mg/mL.

**Q.** With `Cc1cc(N=Nc2c(S(=O)(=O)O)cc3c(S(=O)(=O)O)c(N=Nc4c(S(=O)(=O)O)cc5c(S(=O)(=O)O)c(N=Nc6cc(S(=O)(=O)O)c7cc(S(=O)(=O)O)c(N=Nc8ccc([N+](=O)[O-])cc8S(=O)(=O)O)c(O)c7c6N)ccc5c4O)ccc3c2O)c(OCCCS(=O)(=O)O)cc1N=Nc1cc(S(=O)(=O)O)cc2cc(S(=O)(=O)O)cc(O)c12` [formula (II-59)] as the molecule, how does the solubility read?
**A.** Its solubility is ≥ 100 mg/mL.

**Q.** With `Cc1cc(N=Nc2c(S(=O)(=O)O)cc3c(S(=O)(=O)O)c(N=Nc4c(S(=O)(=O)O)cc5c(S(=O)(=O)O)c(N=Nc6cc(S(=O)(=O)O)c7cc(S(=O)(=O)O)c(N=Nc8ccc([N+](=O)[O-])cc8S(=O)(=O)O)c(O)c7c6N)ccc5c4O)ccc3c2O)c(OCCCS(=O)(=O)O)cc1N=Nc1cc(C(=O)O)cc(C(=O)O)c1` [formula (II-61)] as the molecule, how does the solubility read?
**A.** Its solubility is ≥ 100 mg/mL.

**Q.** Which solubility does the source give for `Nc1c(N=Nc2ccc3c(O)c(N=Nc4ccc5c(O)c(N=Nc6ccc(N=Nc7ccc(S(=O)(=O)O)cc7)cc6S(=O)(=O)O)c(S(=O)(=O)O)cc5c4S(=O)(=O)O)c(S(=O)(=O)O)cc3c2S(=O)(=O)O)cc(S(=O)(=O)O)c2cc(S(=O)(=O)O)c(N=Nc3ccc([N+](=O)[O-])cc3S(=O)(=O)O)c(O)c12` [formula (II-56)] here?
**A.** The solubility was ≥ 100 mg/mL.
